From patent US20050208549A1, “Testing endosymbiont cellular organelles and compounds identifiable therewith” (priority 2000, published 2005)

Legend:
[1] = system: peripheral blood mononuclear cells (PBMCs); assay: NASBA ratio of mitochondrial RNA to chromosome-encoded RNA in cultured PBMCs; format: cell-based, human (healthy blood donor); details: culture period of five days, 6 μM and 60 μM
Experimental: (§1) In Table 1, the primers and probes used in the examples are summarized. Standard NASBA nucleic acid amplification reactions were performed in a 20 μl reaction volume and contained: 40 mM Tris-pH 8.5, 70 mM KCl, 12 mM MgCl2, 5 mM dithiothreitol, 1 mM dNTPs (each), 2 mM rNTPs (each), 0.2 μM primer (each), 0.05 μM molecular beacon, 375 mM sorbitol, 0.105 μg/μl bovine serum albumin, 6.4 units AMV RT, 32 units T7 RNA polymerase, 0.08 units RNAse H and input nucleic acid. The complete mixture, except the enzymes, sorbitol and/or bovine serum albumin was, prior to adding the enzyme mixture, heated to 65° C. for two minutes in order to denature any secondary structure in the RNA and to allow the primers to anneal. After cooling the mixture to 41° C., the enzymes were added. The amplification took place at 41° C. for 90 minutes in a fluorimeter (CytoFluor 2000) and the fluorescent signal was measured every minute (using the filter set 530/25 nm and 485/30 nm). For amplification of DNA target sequences, the 65° C. denaturation step was replaced with a 95° C. denaturation step for two to five minutes.
(§2) To achieve quantification, a dilution series of target sequences for a particular primer set was amplified and the time points at which the reactions became positive (the time to positivity, TTP) were plotted against the input amounts of nucleic acid. This way a calibration curve was created that could be used to read TTP values of reactions with unknown amounts of input and deduce the input amount.
Cells (fibroblasts and PBMCs) were cultured under standard conditions in standard media known to persons skilled in the art with the addition of drugs or putative toxic or stimulating compounds as defined in the examples. […] A small aliquot of the isolated nucleic acid was analyzed on an agarose gel and the remainder stored at −80° C. until further analysis. […]

[2] = Peripheral atrophy, Lipodystrophy; d4T > others; cited from earlier work
[3] = system: Fibroblast cells; assay: NASBA ratio of mitochondrial DNA to chromosomal DNA in cultured fibroblast cells; format: cell-based; details: culture period of four weeks, antiviral drugs at 3 μM and 30 μM
Experimental: as §1, with “For amplification of DNA target sequences, the 65° C. denaturation step was replaced with a 95° C. denaturation step for two to five minutes.” left out
as §2, with “amount. […]” for “amount.”

[4] = system: Fibroblast cells; assay: NASBA ratio of mitochondrial RNA to chromosome-encoded RNA in cultured fibroblast cells; format: cell-based; details: culture period of four weeks, antiviral drugs at 3 μM and 30 μM
Experimental: as §1, with “For amplification of DNA target sequences, the 65° C. denaturation step was replaced with a 95° C. denaturation step for two to five minutes.” left out
as §2, with “amount. […]” for “amount.”

[5] = system: Fibroblast cells; assay: NASBA ratio of mitochondrial RNA to chromosomal DNA in cultured fibroblast cells; format: cell-based; details: culture period of four weeks, antiviral drugs at 3 μM and 30 μM
Experimental: as §1, with “For amplification of DNA target sequences, the 65° C. denaturation step was replaced with a 95° C. denaturation step for two to five minutes.” left out
as §2, with “amount. […]” for “amount.”

[6] = system: Fibroblast cells; assay: NASBA ratio of mitochondrial RNA to mitochondrial DNA in cultured fibroblast cells; format: cell-based; details: culture period of four weeks, antiviral drugs at 3 μM and 30 μM
Experimental: as §1, with “For amplification of DNA target sequences, the 65° C. denaturation step was replaced with a 95° C. denaturation step for two to five minutes.” left out
as §2, with “amount. […]” for “amount.”

[7] = system: Fibroblast cells; assay: NASBA ratio of chromosome-encoded RNA to chromosomal DNA in cultured fibroblast cells; format: cell-based; details: culture period of four weeks, antiviral drugs at 3 μM and 30 μM
Experimental: as §1, with “For amplification of DNA target sequences, the 65° C. denaturation step was replaced with a 95° C. denaturation step for two to five minutes.” left out
as §2, with “amount. […]” for “amount.”

| change in ratio of mitochondrial RNA to chromosome-encoded RNA [1] | SMILES | Rate (%) of mitochondrial toxicity, affected organ Fat [2] | change in mitochondrial DNA to chromosomal DNA ratio [3] | change in mitochondrial RNA to chromosome-encoded RNA ratio [4] | change in mitochondrial RNA to chromosomal DNA ratio [5] | change in mitochondrial RNA to mitochondrial DNA ratio [6] | change in ratio of chromosome-encoded RNA and chromosomal DNA [7] |
| --- | --- | --- | --- | --- | --- | --- | --- |
| no measurable change | Cc1cn([C@H]2C=C[C@@H](CO)O2)c(=O)[nH]c1=O [D4T] | 50% | – | – | – | – | – |
| – | CC[n+]1c(-c2ccccc2)c2cc(N)ccc2c2ccc(N)cc21 [ethidium bromide] | – | decline in mitochondrial DNA content | decline in mitochondrial RNA content | decline in mitochondrial RNA content | decline in mitochondrial RNA and DNA content | no measurable change |
